Experiment [1] concerns blood pressure. Description: Tests for action on the cardiovascular system: hypotensive activity (activity in method 1, rats or cats, or method 2), reported in words. The conditions noted are these: standard test procedure, result in words. It is filed as in vivo, rat, cat. As for the experimental part: Tests for action on the cardiovascular system were conducted according to one of the following procedures:
Cats were anaesthetised with pentobarbitone sodium (30 mg/kg) and the cephalic vein, femoral and carotid arteries and trachea were cannulated. The carotid cannula was introduced into the left ventricle and the femoral cannula into the aorta. Blood pressure and heart rate were recorded from the aortic cannula and left ventricular pressure from the carotid cannula. The test compunds were administered intravenously (0.1-25.6 mg/kg).
Method 2 (hypertensive rats)
Male or female rats are rendered hypertensive by applying a figure of 8 ligature around one kidney and contralateral nephrectomy. Blood pressure stabilises at a hypertensive level after 6 weeks. Systolic pressure is measured indirectly using a Decker Caudal Plethysmograph A control group of rats is run with each group treated with drug. Each group usually consists of six rats. Drugs are usually administered by the IP or oral routes. Pressures are read prior to drug administration and at two and 24 hours thereafter.

Experiment [2] concerns the target T1, histamine (Cavia porcellus, UniProt P31389).
T1 construct: from tissue
The experiment is described as follows: Antihistamine activity by the method of Alps et al. The conditions noted are these: result in words.

Experiment [3] concerns blood pressure and heart rate. Description: Method 1 (rat): hypotensive activity in anaesthetised rats, i.v. Conditions: for minimal effective dose: Rattus norvegicus, iv, 0.25 h, read-out: Hypotensive Activity.
Procedure: Rats were anaesthetised with pentobarbitone sodium (60 mg/kg) and the jugular vein, trachea and carotid artery were cannulated. […] A decrease in heart rate of more than 30% from control values was considered to be significant bradycardia.
The test system of experiment [4] is α-adrenoceptor. The experiment is described as follows: α-Adrenoceptor antagonism on the guinea pig aortic strip. Conditions: Table 4. An excerpt: Carried out on the guinea pig aortic strip [Furchgott and Bhadrakom (1953) J. Pharmac. exp. Ther. 108, 129-143] by the method of Alps et al [Br. J. Pharmac. 1972 44, 52-62].

T1 sequence (P31389 whole entry): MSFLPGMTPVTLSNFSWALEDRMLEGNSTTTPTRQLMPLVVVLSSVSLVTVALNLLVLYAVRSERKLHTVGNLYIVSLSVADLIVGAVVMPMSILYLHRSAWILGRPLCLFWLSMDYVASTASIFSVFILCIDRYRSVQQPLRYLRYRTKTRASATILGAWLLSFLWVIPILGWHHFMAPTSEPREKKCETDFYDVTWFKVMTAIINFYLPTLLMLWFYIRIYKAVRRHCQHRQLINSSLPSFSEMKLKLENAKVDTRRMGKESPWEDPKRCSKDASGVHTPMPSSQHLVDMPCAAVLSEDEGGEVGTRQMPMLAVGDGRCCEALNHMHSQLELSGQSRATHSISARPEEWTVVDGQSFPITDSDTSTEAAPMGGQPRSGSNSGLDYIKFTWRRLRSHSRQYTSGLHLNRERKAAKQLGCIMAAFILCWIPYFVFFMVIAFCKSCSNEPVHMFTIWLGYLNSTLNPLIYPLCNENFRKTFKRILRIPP

Turning to `O=C(NC1CCN(CCC2=CCc3ccccc32)CC1)c1ccccc1` [Example 14, 1-[2-(3-Indenyl)ethyl]-4-benzamidopiperidine], the hypotensive activity entry in experiment [1] was “hypotensive activity”. In addition, the antihistamine activity entry in experiment [2] was “antihistamine activity”. The minimal effective dose in experiment [3] lay within 6.4 to 12.8 mg/kg.
Turning to `O=C(NC1CCN(CCc2ccccc2[N+](=O)[O-])CC1)c1ccccc1` [Example 33, 1-[2-(o-Nitrophenyl)ethyl]-4-benzamido-piperidine], in experiment [1], the hypotensive activity entry is “hypotensive activity”. In addition, the minimal effective dose in experiment [3] fell in the range of 6.4 to 12.8 mg/kg.
On the same counts, the results for `Cc1ccc(CCN2CCC(NC(=O)c3ccccc3)CC2)cc1C` [Example 41, 1-[2-(3,4-Dimethylphenyl)ethyl]-4-benzamidopiperidine] are “hypotensive activity” and 6.4 to 12.8 mg/kg.
The corresponding values for `COc1ccc(CCN2CCC(NC(=O)c3ccccc3)CC2)cc1` [Example 49, 4-Benzamido-1-[2-(p-methoxyphenyl)ethyl]piperidine] are “hypotensive activity” and 6.4 to 12.8 mg/kg.
The corresponding values for `O=C(CCCN1CCC(NC(=O)c2ccccc2)CC1)Nc1ccccc1` [Example 50, N-Phenyl-4-(p-benzamidopiperid-1-yl)butyramide] are “hypotensive activity” and 6.4 to 12.8 mg/kg.
For `O=C(NC1CCN(CCOc2ccccc2)CC1)c1ccccc1` [Example 52, 1-(2-Phenoxyethyl)-4-benzamidopiperidine], the hypotensive activity result in experiment [1] is “marked hypotensive activity”. The minimal effective dose in experiment [3] is 6.4 to 12.8 mg/kg. For the same molecule, the “α-blockade pA2” value in experiment [4] turned out to be 5.9.
As for `O=C(NC1CCN(CCCC(O)c2ccccc2)CC1)c1ccccc1` (stereo not shown) [Example 53, 4-Benzamido-1-(4-phenyl-4-hydroxybutyl)piperidine], the hypotensive activity entry in experiment [1] was “hypotensive activity”. For the same molecule, the minimal effective dose in experiment [3] was in the range of 6.4 to 12.8 mg/kg.
The corresponding values for `O=C(NC1CCN(CCCOc2cccc3ccccc23)CC1)c1ccccc1` [Example 55, 1-[3-(1-Naphthyloxy)-propyl]-4-benzamidopiperidine] are “marked hypotensive activity” and 1.6 to 3.2 mg/kg.
For `O=C(CN1CCC(NC(=O)c2ccccc2)CC1)c1ccc2c(c1)CCCC2` [Example 56, 1-[2-(1,2,3,4-Tetrahydro-6-napthyl)-2-oxoethyl]-4-benzamidopiperidine], in experiment [1], the hypotensive activity result is “hypotensive activity”. Also, the minimal effective dose in experiment [3] fell in the range of 6.4 to 12.8 mg/kg.
The corresponding values for `O=C(NC1CCN(CC(O)c2ccc3c(c2)CCCC3)CC1)c1ccccc1` (stereo not shown) [Example 57, 1-[2-(1,2,3,4-Tetrahydro-6-naphthyl)-2-hydroxyethyl]-4-benzamido-piperidine] are “hypotensive activity” and 1.6 to 3.2 mg/kg.
Take `O=C(CCCN1CCC(NC(=O)c2ccccc2)CC1)c1ccc2c(c1)CCCC2` [Example 58, 1-[4-(1,2,3,4-Tetrahydro-6-naphthyl)-4-oxobutyl]-4-benzamidopiperidine]: the hypotensive activity entry in experiment [1] is given as “hypotensive activity”. Besides, in experiment [3], the minimal effective dose was in the range of 1.6 to 3.2 mg/kg. Moreover, the “α-blockade pA2” value in experiment [4] is 6.9.
As to `CC(C(O)c1ccc(O)cc1)N1CCC(NC(=O)c2ccccc2)CC1` (stereo not shown) [Example 65, 1-[1-Methyl-2-(4-hydroxy)phenyl-2-hydroxyethyl]-4-benzamidopiperidine], the hypotensive activity result in experiment [1] is recorded as “hypotensive activity”. Also, in experiment [3], the minimal effective dose is 25.6 mg/kg.
The corresponding values for `Cc1cc2c(cc1C(=O)CN1CCC(NC(=O)c3ccccc3)CC1)C(C)(C)CC(C)C2(C)C` (stereo not shown) [Example 66, 7-(4-Benzamidopiperidinoacetyl)-1,1,3,4,4,6-hexamethyl-1,2,3,4-tetrahydronaphthalene] are “hypotensive activity” and 6.4 to 12.8 mg/kg.
On the same counts, the results for `COc1ccccc1OCCN1CCC(NC(=O)c2ccccc2)CC1` [Example 68, 1-[2-(2-Methoxyphenoxy)ethyl]-4-benzamidopiperidine] are “hypotensive activity” and 6.4 to 12.8 mg/kg.
As to `O=C(CCN1CCC(NC(=O)c2ccccc2)CC1)c1ccccc1` [Example 69, 4-Benzamido-1-(3-phenyl-3-oxopropyl)piperidine], the hypotensive activity result in experiment [1] was “marked hypotensive activity”. The minimal effective dose in experiment [3] was 1.6 to 3.2 mg/kg. Besides, the “α-blockade pA2” value in experiment [4] was 6.6.
On the same counts, the results for `CC(C)(C)c1ccc(C(=O)CCCN2CCC(NC(=O)c3ccccc3)CC2)cc1` [Example 70, 4-Benzamido-1-[4-(4-tert-butyl-phenyl)-4-oxobutyl]piperidine] are “hypotensive activity”, 0.8 mg/kg and 6.6.
Regarding `NC1CCN(CCCC(=O)c2ccccc2)CC1` [Example 72, 4-Amino-1-(4-phenyl-4-oxobutyl)piperidine], the “α-blockade pA2” value in experiment [4] came to 6.9.
Regarding `O=C(CCCN1CCC(NC(=O)c2ccc3c(c2)OCO3)CC1)c1ccccc1` [Example 74, 4-Piperonylamido-1-(4-phenyl-4-oxobutyl)-piperidine], the hypotensive activity entry in experiment [1] is “hypotensive activity”. Besides, the minimal effective dose in experiment [3] was 6.4 to 12.8 mg/kg. In experiment [4], the “α-blockade pA2” value is given as 6.4.
The corresponding values for `O=C(CCCN1CCC(NC(=O)C2CCCCC2)CC1)c1ccccc1` [Example 75, 4-Cyclohexanecarboxamido-1-(4-phenyl-4-oxobutyl)piperidine] are “marked hypotensive activity”, 6.4 to 12.8 mg/kg and 6.9.
Regarding `O=C(CCCN1CCC(NC(=O)c2ccc(Cl)cc2)CC1)c1ccccc1` [Example 76, 4-(4-Chlorobenzamido)-1-(4-phenyl-4-oxobutyl)piperidine], the hypotensive activity entry in experiment [1] was “hypotensive activity”. Besides, the minimal effective dose in experiment [3] was in the range of 6.4 to 12.8 mg/kg.
With `CC(Cc1ccccc1)N1CCC(NC(=O)c2ccccc2)CC1` (stereo not shown) [Example 78, 4-Benzamido-1-(1-phenylprop-2-yl)piperidine], the hypotensive activity result in experiment [1] is given as “marked hypotensive activity”. Besides, in experiment [3], the minimal effective dose fell in the range of 6.4 to 12.8 mg/kg.
On the same counts, the results for `O=C(CCCN1CCC(NC(=O)c2ccccc2)CC1)c1ccc2ccccc2c1` [Example 80, 1-[4-(2-Naphthyl)-4-oxobutyl]-4-benzamidopiperidine] are “hypotensive activity” and 1.6 to 3.2 mg/kg.
For `O=C(NC1CCN(CCCCc2ccc3c(c2)CCCC3)CC1)c1ccccc1` [Example 81, 1-[4-(1',2',3',4'-Tetrahydro-6-naphthyl)butyl]-4-benzamidopiperidine], the hypotensive activity result in experiment [1] is recorded as “hypotensive activity”. The minimal effective dose in experiment [3] was 1.6 to 3.2 mg/kg. Also, in experiment [4], the “α-blockade pA2” value is given as 6.6.
Regarding `O=C(NC1CCN(CCCC(O)c2ccc3ccccc3c2)CC1)c1ccccc1` (stereo not shown) [Example 83, 1-[4-(2'-Naphthyl)-4-hydroxybutyl]-4-benzamidpiperidine], in experiment [1], the hypotensive activity entry is “hypotensive activity”. For the same molecule, in experiment [3], the minimal effective dose fell in the range of 1.6 to 3.2 mg/kg.
On the same counts, the results for `O=C(NC1CCN(CCc2ccc3ccccc3c2)CC1)C1CCCCC1` [Example 84] are “hypotensive activity” and 6.4 to 12.8 mg/kg.
The corresponding values for `O=C(NC1CCN(CCC=C(c2ccc(F)cc2)c2ccc(F)cc2)CC1)c1ccccc1` [Example 87, 4-(4-Benzamidopiperid-1-yl)-1,1-(di-p-fluorophenyl)but-l-ene] are “hypotensive activity” and 25.6 mg/kg.
Take `O=C(NC1CCN(CCCC(c2ccc(F)cc2)c2ccc(F)cc2)CC1)c1ccccc1` [Example 88, 4-(4-Benzamidopiperid-1-yl)-1,1-(di-p-fluorophenyl)butane]: the hypotensive activity result in experiment [1] is listed as “hypotensive activity”. Moreover, the minimal effective dose in experiment [3] was in the range of 1.6 to 3.2 mg/kg. In addition, the “α-blockade pA2” value in experiment [4] stood at 5.9.
For the molecule `O=C(NC1CCN(CCC=C(c2ccccc2)c2ccccc2)CC1)c1ccccc1` [Example 89, 4-(4-Benzamidopiperid-1-yl)-1,1-diphenylbut-l-ene], the hypotensive activity result in experiment [1] is “hypotensive activity”. In addition, the minimal effective dose in experiment [3] lay in the range of 6.4 to 12.8 mg/kg.
`O=C(NC1CCN(CCCC(c2ccccc2)c2ccccc2)CC1)c1ccccc1` [Example 90, 4-(4-Benzamidopiperid-1-yl)-1,1-diphenyl butane]: the hypotensive activity result in experiment [1] is “hypotensive activity”. Besides, the minimal effective dose in experiment [3] lay within 6.4 to 12.8 mg/kg.
On the same counts, the results for `O=C(CCN1CCC(NC(=O)c2ccccc2)CC1)c1ccc2c(c1)OCCO2` [Example 91, 1-[3-(1,4-Benzodioxan-6-yl)-3-oxopropyl]-4-benzamidopiperidine] are “hypotensive activity” and 25.6 mg/kg.
As to `O=C(NC1CCN(CCC(O)c2ccc3c(c2)OCCO3)CC1)c1ccccc1` (stereo not shown) [Example 92, 1-[3-(1,4-Benzodioxan-6-yl)-3-hydroxypropyl]-4-benzamido piperidine], the hypotensive activity entry in experiment [1] is “hypotensive activity”; in experiment [3] (Table 3, cumulative iv dose, fall in diastolic blood pressure of 30 mm or more for at least 15 min) it was “+ ++”. The “α-blockade pA2” value in experiment [4] was 6.6.
`Cc1cc(CN2CCC(NC(=O)c3ccccc3)CC2)c(C)n1-c1ccccc1` [Example 99, 1-(2,5-Dimethyl-1-phenylpyrrol-3-yl-methyl)-4-benzamidopiperidine]: the hypotensive activity result in experiment [1] is “hypotensive activity”. In addition, in experiment [3], the minimal effective dose is less than 30 mg/kg.
